Source: US8648088B2, “Ethynyl nitrogen containing heteroaryl pyrazolidin-3-one derivatives” (Hoffmann-La Roche Inc., priority 2011, dated 2014)

How the values were obtained:
human mGlu5a receptor [1] = molecular target: T1, human mGlu5a receptor (Homo sapiens, UniProt P41594); assay: [3H]MPEP binding competition on human mGlu5a receptor membranes; set-up: expressed in transfected cells; host or cells: EBNA cells (transient), membrane homogenates; conditions: [3H]MPEP (2 nM) competition, EBNA cell membranes, 1 h at 4° C.; read-out: Human mGluR5 Ki
Experimental: Examples 18, 20-22 have been tested on human mGluR5 receptor using the following method:
For binding experiments, cDNA encoding human mGlu 5a receptor was transiently transfected into EBNA cells using a procedure described by Schlaeger and Christensen [Cytotechnology 15:1-13 (1998)]. Cell membrane homogenates were stored at −80° C. until the day of assay where upon they were thawed and resuspended and polytronized in 15 mM Tris-HCl, 120 mM NaCl, 100 mM KCl, 25 mM CaCl2, 25 mM MgCl2 binding buffer at pH 7.4 to a final assay concentration of 20 μg protein/well.
Saturation isotherms were determined by addition of twelve [^3H]MPEP concentrations (0.04-100 nM) to these membranes (in a total volume of 200 μl) for 1 h at 4° C. Competition experiments were performed with a fixed concentration of [^3H]MPEP (2 nM) and IC50 values of test compounds evaluated using 11 concentrations (0.3-10,000 nM). Incubations were performed for 1 h at 4° C.
At the end of the incubation, membranes were filtered onto unifilter (96-well white microplate with bonded GF/C filter preincubated 1 h in 0.1% PEI in wash buffer, Packard BioScience, Meriden, Conn.) with a Filtermate 96 harvester (Packard BioScience) and washed 3 times with cold 50 mM Tris-HCl, pH 7.4 buffer. Nonspecific binding was measured in the presence of 10 μM MPEP. The radioactivity on the filter was counted (3 min) on a Packard Top-count microplate scintillation counter with quenching correction after addition of 45 μl of microscint 40 (Canberra Packard S.A., Zürich, Switzerland) and shaking for 20 min.
For binding experiments the Ki values of the compounds tested are given. The Ki value is defined by the following formula: Ki=IC50/[1+L/Kd] in which the IC50 values are those concentrations of the compounds tested which cause 50% inhibition of the competing radioligand ([^3H]MPEP). L is the concentration of radioligand used in the binding experiment and the Kd value of the radioligand is empirically determined for each batch of membranes prepared.

human mGlu5a receptor [2] = molecular target: T1, human mGlu5a receptor; assay: Intracellular Ca2+ mobilization assay (mGlu5 PAM); type: cell-based; set-up: expressed in transfected cells; conditions: for Emax: HEK293, maximal response in % of maximal stimulatory effect of saturating L-glutamate, HEK-293 human mGlu5a, read-out: Eff. (%); for EC50: HEK-293 cells stably expressing human mGlu5a, L-glutamate added at EC20, read-out: EC50 (nM) mGlu5PAM
Experimental: A monoclonal HEK-293 cell line stably transfected with a cDNA encoding for the human mGlu5a receptor was generated; for the work with mGlu5 Positive Allosteric Modulators (PAMs), a cell line with low receptor expression levels and low constitutive receptor activity was selected to allow the differentiation of agonistic versus PAM activity. Cells were cultured according to standard protocols (Freshney, 2000) in Dulbecco's Modified Eagle Medium with high glucose supplemented with 1 mM glutamine, 10% (vol/vol) heat-inactivated bovine calf serum, Penicillin/Streptomycin, 50 μg/ml hygromycin and 15 μg/ml blasticidin (all cell culture reagents and antibiotics from Invitrogen, Basel, Switzerland).
About 24 hrs before an experiment, 5×10^4 cells/well were seeded in poly-D-lysine coated, black/clear-bottomed 96-well plates. The cells were loaded with 2.5 μM Fluo-4AM in loading buffer (1×HBSS, 20 mM HEPES) for 1 hr at 37° C. and washed five times with loading buffer. The cells were transferred into a Functional Drug Screening System 7000 (Hamamatsu, Paris, France), and 11 half logarithmic serial dilutions of test compound at 37° C. were added and the cells were incubated for 10-30 min with on-line recording of fluorescence. Following this pre-incubation step, the agonist L-glutamate was added to the cells at a concentration corresponding to EC20 (typically around 80 μM) with on-line recording of fluorescence; in order to account for day-to-day variations in the responsiveness of cells, the EC20 of glutamate was determined immediately ahead of each experiment by recording of a full dose-response curve of glutamate.
Responses were measured as peak increase in fluorescence minus basal (i.e. fluorescence without addition of L-glutamate), normalized to the maximal stimulatory effect obtained with saturating concentrations of L-glutamate. Graphs were plotted with the % maximal stimulatory using XLfit, a curve fitting program that iteratively plots the data using Levenburg Marquardt algorithm. The single site competition analysis equation used was y=A+((B−A)/(1+((x/C)D))), where y is the % maximal stimulatory effect, A is the minimum y, B is the maximum y, C is the EC50, x is the log 10 of the concentration of the competing compound and D is the slope of the curve (the Hill Coefficient). From these curves the EC50 (concentration at which half maximal stimulation was achieved), the Hill coefficient as well as the maximal response in % of the maximal stimulatory effect obtained with saturating concentrations of L-glutamate were calculated.
A depression of the signal observed after addition of the EC20 concentration of L-glutamate was indicative of an inhibitory activity of the test compound.
In the table below are shown the prepared compounds 1-24 with corresponding results (EC50 in nM).

T1 sequence (P41594 21-1180 isoform P41594-2 limits assumed): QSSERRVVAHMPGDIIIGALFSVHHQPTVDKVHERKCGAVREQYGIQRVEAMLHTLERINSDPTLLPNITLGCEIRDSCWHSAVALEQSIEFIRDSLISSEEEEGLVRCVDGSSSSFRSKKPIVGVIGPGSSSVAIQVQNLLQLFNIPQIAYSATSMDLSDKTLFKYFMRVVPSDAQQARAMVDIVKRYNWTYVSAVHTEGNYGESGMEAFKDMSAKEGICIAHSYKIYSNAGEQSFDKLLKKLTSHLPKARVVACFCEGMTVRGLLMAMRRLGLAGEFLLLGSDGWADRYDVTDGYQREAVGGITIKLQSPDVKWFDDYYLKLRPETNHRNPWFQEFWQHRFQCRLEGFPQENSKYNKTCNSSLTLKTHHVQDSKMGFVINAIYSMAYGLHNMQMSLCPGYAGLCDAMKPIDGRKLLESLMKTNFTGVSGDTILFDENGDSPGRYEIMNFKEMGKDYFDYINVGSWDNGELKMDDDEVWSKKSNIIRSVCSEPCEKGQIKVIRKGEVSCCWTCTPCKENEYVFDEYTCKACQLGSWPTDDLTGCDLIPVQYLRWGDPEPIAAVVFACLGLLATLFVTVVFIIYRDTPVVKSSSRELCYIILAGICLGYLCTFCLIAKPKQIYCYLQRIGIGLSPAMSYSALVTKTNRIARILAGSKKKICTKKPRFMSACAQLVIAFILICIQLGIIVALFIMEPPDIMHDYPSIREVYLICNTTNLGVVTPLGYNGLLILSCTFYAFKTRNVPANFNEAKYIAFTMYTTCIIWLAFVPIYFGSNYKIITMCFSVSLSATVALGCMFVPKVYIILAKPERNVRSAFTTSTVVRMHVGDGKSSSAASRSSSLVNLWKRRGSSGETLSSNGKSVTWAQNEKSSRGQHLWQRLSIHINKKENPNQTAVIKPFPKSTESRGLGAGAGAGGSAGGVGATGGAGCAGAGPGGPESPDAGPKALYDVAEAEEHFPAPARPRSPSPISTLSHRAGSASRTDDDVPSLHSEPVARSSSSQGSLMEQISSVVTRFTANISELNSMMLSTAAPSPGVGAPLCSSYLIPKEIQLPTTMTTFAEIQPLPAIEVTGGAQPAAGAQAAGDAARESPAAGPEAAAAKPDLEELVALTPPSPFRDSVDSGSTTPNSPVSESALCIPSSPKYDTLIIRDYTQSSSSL

Structure (SMILES) | Ki (human mGlu5a receptor [1]) | Emax (human mGlu5a receptor [2]) | EC50 (human mGlu5a receptor [2])
CN1N(c2ccc(C#Cc3ccnc(Cl)c3)cn2)C(=O)CC1(C)C [Example 18, 2-[5-(2-Chloro-pyridin-4-ylethynyl)-pyridin-2-yl]-1,5,5-trimethyl-pyrazolidin-3-one] | 0.103 µM |  | 
CC1(C)CC(=O)N(c2ccc(C#Cc3ccc(F)cc3)cn2)N1 [Example 8, 2-[5-(4-Fluoro-phenylethynyl)-pyridin-2-yl]-5,5-dimethyl-pyrazolidin-3-one] |  | 38% | 13 nM
CC1(C)CC(=O)N(c2ccc(C#Cc3cc(F)ccc3F)cn2)N1 [Example 20, 2-[5-(2,5-Difluoro-phenylethynyl)-pyridin-2-yl]-5,5-dimethyl-pyrazolidin-3-one] | 0.0697 µM |  | 
CC1(C)CC(=O)N(c2ccc(C#Cc3ccccc3)cn2)N1 [Example 1, 5,5-Dimethyl-2-(5-phenylethynyl-pyridin-2-yl)-pyrazolidin-3-one] |  | 60% | 7 nM
O=C1CC2CCCN2N1c1ncc(C#Cc2ccccc2)cn1 (racemic) [Example 11, (RS)-1-(5-Phenylethynyl-pyrimidin-2-yl)-tetrahydro-pyrrolo[1,2-b]pyrazol-2-one] |  | 55% | 60 nM
O=C1CC2CCCN2N1c1ncc(C#Cc2ccc(F)cc2)cn1 (racemic) [Example 13, (RS)-1-[5-(4-Fluoro-phenylethynyl)-pyrimidin-2-yl]-tetrahydro-pyrrolo[1,2-b]pyrazol-2-one] |  | 58% | 41 nM
O=C1CC2CCCN2N1c1ccc(C#Cc2ccccc2)cn1 (racemic) [Example 10, (RS)-1-(5-Phenylethynyl-pyridin-2-yl)-tetrahydro-pyrrolo[1,2-b]pyrazol-2-one] |  | 73% | 35 nM
CC(C)C1CC(=O)N(c2ccc(C#Cc3ccccc3)cn2)N1 (racemic) [Example 2, (RS)-5-Isopropyl-2-(5-phenylethynyl-pyridin-2-yl)-pyrazolidin-3-one] |  | 73% | 24 nM
CN1N(c2ncc(C#Cc3cccc(F)c3)cn2)C(=O)CC1(C)C [Example 15, 2-[5-(3-Fluoro-phenylethynyl)-pyrimidin-2-yl]-1,5,5-trimethyl-pyrazolidin-3-one] |  | 61% | 34 nM
CN1N(c2ncc(C#Cc3cc(F)ccc3F)cn2)C(=O)CC1(C)C [Example 17, 2-[5-(2,5-Difluoro-phenylethynyl)-pyrimidin-2-yl]-1,5,5-trimethyl-pyrazolidin-3-one] |  | 47% | 35 nM
CCN1C(C(C)C)CC(=O)N1c1ccc(C#Cc2ccccc2)cn1 (racemic) [Example 23, (RS)-1-Ethyl-5-isopropyl-2-(5-phenylethynyl-pyridin-2-yl)-pyrazolidin-3-one] |  | 46% | 106 nM
CC1(C)CC(=O)N(c2ccc(C#Cc3cccc(F)c3)cn2)N1 [Example 5, 2-[5-(3-Fluoro-phenylethynyl)-pyridin-2-yl]-5,5-dimethyl-pyrazolidin-3-one] |  | 31% | 13 nM
O=C1CC2CCCN2N1c1ncc(C#Cc2cccc(F)c2)cn1 (racemic) [Example 12, (RS)-1-[5-(3-Fluoro-phenylethynyl)-pyrimidin-2-yl]-tetrahydro-pyrrolo[1,2-b]pyrazol-2-one] |  | 59% | 22 nM
CN1N(c2ncc(C#Cc3ccccc3)cn2)C(=O)CC1(C)C [Example 14, 1,5,5-Trimethyl-2-(5-phenylethynyl-pyrimidin-2-yl)-pyrazolidin-3-one] |  | 66% | 33 nM
CCN1N(c2ccc(C#Cc3ccccc3)cn2)C(=O)CC1(C)C [Example 21, 1-Ethyl-5,5-dimethyl-2-(5-phenylethynyl-pyridin-2-yl)-pyrazolidin-3-one] | 0.0535 µM |  | 
CN1N(c2ccc(C#Cc3cccc(F)c3)cn2)C(=O)CC1(C)C [Example 6, 2-[5-(3-Fluoro-phenylethynyl)-pyridin-2-yl]-1,5,5-trimethyl-pyrazolidin-3-one] |  | 109% | 36 nM
CN1N(c2ncc(C#Cc3ccc(F)cc3)cn2)C(=O)CC1(C)C [Example 16, 2-[5-(4-Fluoro-phenylethynyl)-pyrimidin-2-yl]-1,5,5-trimethyl-pyrazolidin-3-one] |  | 69% | 56 nM
CN1N(c2ccc(C#Cc3ccccc3)cn2)C(=O)CC1(C)C [Example 3, 1,5,5-Trimethyl-2-(5-phenylethynyl-pyridin-2-yl)-pyrazolidin-3-one] |  | 96% | 30 nM
CC1(C)CC(=O)N(c2ncc(C#Cc3ccccc3)cn2)N1 [Example 9, 5,5-Dimethyl-2-(5-phenylethynyl-pyrimidin-2-yl)-pyrazolidin-3-one] |  | 39% | 46 nM
Cc1cccc(C#Cc2ccc(N3C(=O)CC(C)(C)N3C)nc2)c1 [Example 4, 1,5,5-Trimethyl-2-(5-m-tolylethynyl-pyridin-2-yl)-pyrazolidin-3-one] |  | 72% | 72 nM
CC1(C(F)(F)F)CC(=O)N(c2ccc(C#Cc3ccccc3)cn2)N1 (racemic) [Example 24, (RS)-5-Methyl-2-(5-phenylethynyl-pyridin-2-yl)-5-trifluoromethyl-pyrazolidin-3-one] |  | 92% | 71 nM
CC1(C)CC(=O)N(c2ccc(C#Cc3cc(F)ccc3F)nn2)N1 [Example 19, 2-[6-(2,5-Difluoro-phenylethynyl)-pyridazin-3-yl]-5,5-dimethyl-pyrazolidin-3-one] |  | 86% | 86 nM
CN1N(c2ccc(C#Cc3cccc(Cl)c3)cn2)C(=O)CC1(C)C [Example 7, 2-[5-(3-Chloro-phenylethynyl)-pyridin-2-yl]-1,5,5-trimethyl-pyrazolidin-3-one] |  | 55% | 90 nM
